Laboratory results: ChEMBL document CHEMBL5370592, “Synthesis and Structure-Activity Relationships of a New Class of Oxadiazoles Targeting DprE1 as Antitubercular Agents” (ACS Med Chem Lett, 2023)
Values after ≈ are worked out from the molar mass of the structure shown. Active and inactive are the calls of the source. The calls are words filed in the database; no cut-off is given here.

Columns and labels:
[1] = system: Mycobacterium tuberculosis; experiment: Antitubercular activity against Mycobacterium tuberculosis H37RV ATCC 27294 assessed as inhibition of bacterial growth cultured in Middlebrook 7H9/cholesterol/BSA/Tyloxapol medium for 2 weeks; type: functional; settings: H37Rv ATCC 27294, 336 h
[2] = system: Mycobacterium tuberculosis; experiment: Antitubercular activity against Mycobacterium tuberculosis NIH_G12 assessed as inhibition of bacterial growth incubated for 2 weeks; type: functional; settings: NIH_G12, 336 h
[3] = system: Mycobacterium tuberculosis; experiment: Induction of DNA damage in Mycobacterium tuberculosis H37Rv transfected with PrecA-LUX reporter assessed as induction of recA reporter gene expression incubated for 12 days by bioluminescence analysis; type: functional, organism-based; settings: time 12.0 day
[4] = system: Mycobacterium tuberculosis; experiment: Antitubercular activity against Mycobacterium tuberculosis H37Rv ATCC 27294 assessed as inhibition of bacterial growth cultured in Middlebrook 7H9/BSA/Tyloxapol with glucose medium for 2 weeks; type: functional; settings: H37Rv ATCC 27294, 336 h
[5] = Cytotoxicity against human HepG2 cells assessed as reduction in cell viability incubated for 24 hrs in DMEM/10% FBS supplemented with glucose by CellTiter-Glo luminescent assay; type: toxicity, cell-based
[6] = system: Mycobacterium tuberculosis; experiment: Antitubercular activity against Mycobacterium tuberculosis H37Rv ATCC 27294 assessed as inhibition of bacterial growth cultured in Middlebrook 7H9/ADC/Tween 80 with cydC::aph medium for 2 weeks; type: functional; settings: H37Rv ATCC 27294, 336 h
[7] = system: Mycobacterium tuberculosis; experiment: Antitubercular activity against Mycobacterium tuberculosis HN878 assessed as inhibition of bacterial growth incubated for 2 weeks; type: functional; settings: HN878, 336 h
[8] = system: Mycobacterium tuberculosis; experiment: Antitubercular activity against Mycobacterium tuberculosis K05b00DS assessed as inhibition of bacterial growth incubated for 2 weeks; type: functional; settings: 336 h
[9] = system: Mycobacterium tuberculosis; experiment: Antitubercular activity against Mycobacterium tuberculosis K12b00DS assessed as inhibition of bacterial growth incubated for 2 weeks; type: functional; settings: 336 h
[10] = system: Mycobacterium tuberculosis; experiment: Antitubercular activity against Mycobacterium tuberculosis H37Rv ATCC 27294 assessed as inhibition of bacterial growth cultured in Middlebrook 7H9/DPPC/cholesterol/BSA/Tyloxapol medium for 2 weeks; type: functional; settings: H37Rv ATCC 27294, 336 h
[11] = system: Mycobacterium tuberculosis; experiment: Antitubercular activity against Mycobacterium tuberculosis K14b00DS assessed as inhibition of bacterial growth incubated for 2 weeks; type: functional; settings: 336 h
[12] = system: Mycobacterium tuberculosis; experiment: Antitubercular activity against Mycobacterium tuberculosis K35b00DS assessed as inhibition of bacterial growth incubated for 2 weeks; type: functional; settings: 336 h
[13] = system: Mycobacterium tuberculosis; experiment: Antitubercular activity against Mycobacterium tuberculosis clinical strain K5072429 assessed as inhibition of bacterial growth incubated for 2 weeks; type: functional; settings: K5072429, 336 h
[14] = system: Mycobacterium tuberculosis; experiment: Antitubercular activity against Mycobacterium tuberculosis infected in mouse J774 cells assessed as decrease in colony forming unit enumeration on solid medium at 5XMIC measured after 7 days; type: functional, organism-based; settings: time 7.0 day
[15] = system: Mycobacterium tuberculosis; experiment: Antitubercular activity against Mycobacterium tuberculosis K10b00DS assessed as inhibition of bacterial growth incubated for 2 weeks; type: functional; settings: 336 h
[16] = system: Mycobacterium tuberculosis; experiment: Antitubercular activity against Mycobacterium tuberculosis K16b00DS assessed as inhibition of bacterial growth incubated for 2 weeks; type: functional; settings: 336 h
[17] = system: Mycobacterium tuberculosis; experiment: Antitubercular activity against Mycobacterium tuberculosis K17b00DS assessed as inhibition of bacterial growth incubated for 2 weeks; type: functional; settings: 336 h
[18] = system: Mycobacterium tuberculosis; experiment: Antitubercular activity against Mycobacterium tuberculosis H37Rv ATCC 27294 assessed as inhibition of bacterial growth incubated for 2 weeks; type: functional; settings: H37Rv ATCC 27294, 336 h
[19] = system: Mycobacterium tuberculosis; experiment: Antitubercular activity against Mycobacterium tuberculosis CDC1551 assessed as inhibition of bacterial growth incubated for 2 weeks; type: functional; settings: CDC1551, 336 h
[20] = system: Mycobacterium tuberculosis; experiment: Antitubercular activity against Mycobacterium tuberculosis K04b00DS assessed as inhibition of bacterial growth incubated for 2 weeks; type: functional; settings: 336 h
[21] = system: Mycobacterium tuberculosis; experiment: Antitubercular activity against Mycobacterium tuberculosis K13b00DS assessed as inhibition of bacterial growth incubated for 2 weeks; type: functional; settings: 336 h
[22] = system: Mycobacterium tuberculosis; experiment: Induction of DNA damage in Mycobacterium tuberculosis H37Rv transfected with PradA-LUX reporter assessed as induction of radA reporter gene expression incubated for 12 days by bioluminescence analysis; type: functional, organism-based; settings: time 12.0 day
[23] = system: Mycobacterium tuberculosis; experiment: Antitubercular activity against Mycobacterium tuberculosis H37Rv ATCC 27294 assessed as inhibition of bacterial growth cultured in Middlebrook 7H9/glucose/casitone/tyloxapol medium for 2 weeks; type: functional; settings: H37Rv ATCC 27294, 336 h
[24] = system: Mycobacterium tuberculosis; experiment: Antitubercular activity against Mycobacterium tuberculosis K09b00DS assessed as inhibition of bacterial growth incubated for 2 weeks; type: functional; settings: 336 h
[25] = system: Mycobacterium tuberculosis; experiment: Antitubercular activity against Mycobacterium tuberculosis H37Rv ATCC 27294 assessed as inhibition of bacterial growth cultured in Middlebrook 7H9/ADC/Tween 80 medium for 2 weeks; type: functional; settings: H37Rv ATCC 27294, 336 h
[26] = system: Mycobacterium tuberculosis; experiment: Antitubercular activity against Mycobacterium tuberculosis K11b00DS assessed as inhibition of bacterial growth incubated for 2 weeks; type: functional; settings: 336 h
[27] = molecular target: T1, Decaprenylphosphoryl-beta-D-ribose oxidase (Mycobacterium tuberculosis (strain ATCC 25618 / H37Rv)) (UniProt P9WJF1); experiment: Inhibition of DprE1-mediated cell wall synthesis in Mycobacterium tuberculosis H37Rv transfected with PiniB-LUX reporter assessed as induction of reporter gene expression incubated for 12 days by bioluminescence analysis; settings: time 12.0 day
T1 sequence (whole entry): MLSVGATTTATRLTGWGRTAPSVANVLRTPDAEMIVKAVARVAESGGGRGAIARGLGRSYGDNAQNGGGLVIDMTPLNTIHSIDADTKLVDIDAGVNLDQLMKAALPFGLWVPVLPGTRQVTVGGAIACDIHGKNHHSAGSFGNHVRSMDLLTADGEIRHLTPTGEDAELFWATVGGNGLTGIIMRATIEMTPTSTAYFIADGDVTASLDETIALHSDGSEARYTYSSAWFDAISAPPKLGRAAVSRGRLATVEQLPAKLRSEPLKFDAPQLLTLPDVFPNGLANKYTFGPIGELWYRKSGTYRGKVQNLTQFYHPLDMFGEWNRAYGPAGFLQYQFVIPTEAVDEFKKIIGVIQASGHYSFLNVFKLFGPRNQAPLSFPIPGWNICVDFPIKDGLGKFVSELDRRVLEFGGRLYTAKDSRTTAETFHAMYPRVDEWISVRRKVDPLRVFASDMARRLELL

[28] = system: Mycobacterium tuberculosis; experiment: Antitubercular activity against Mycobacterium tuberculosis K07b00DS assessed as inhibition of bacterial growth incubated for 2 weeks; type: functional; settings: 336 h
[29] = system: Mycobacterium tuberculosis; experiment: Antitubercular activity against Mycobacterium tuberculosis K15b00DS assessed as inhibition of bacterial growth incubated for 2 weeks; type: functional; settings: 336 h
[30] = Cytotoxicity against human HepG2 cells assessed as reduction in cell viability incubated for 24 hrs in DMEM/10% FBS supplemented with galactose by CellTiter-Glo luminescent assay; type: toxicity, cell-based
[31] = system: Mycobacterium tuberculosis; experiment: Antitubercular activity against Mycobacterium tuberculosis Erdman assessed as inhibition of bacterial growth incubated for 2 weeks; type: functional; settings: 336 h

SMILES	MIC [2] [µM]	MIC [7] [µM]	MIC [8] [µM]	MIC [9] [µM]	MIC [11] [µM]	MIC [12] [µM]	MIC [13] [µM]	MIC [15] [µM]	MIC [16] [µM]	MIC [17] [µM]	MIC [18] [µM]	MIC [19] [µM]	MIC [20] [µM]	MIC [21] [µM]	MIC [24] [µM]	MIC [26] [µM]	MIC [28] [µM]	MIC [29] [µM]	MIC [31] [µM]	other results
O=C(C1CCN(c2nnc(-c3ccccc3)o2)CC1)N1CCC(Cc2ccccc2)CC1	0.78 (≈ 0.336 µg/mL)	0.78 (≈ 0.336 µg/mL)	1.2 (≈ 0.517 µg/mL)	1.56 (≈ 0.672 µg/mL)	1.2 (≈ 0.517 µg/mL)	1.2 (≈ 0.517 µg/mL)	2.3 (≈ 0.99 µg/mL)	1.2 (≈ 0.517 µg/mL)	0.78 (≈ 0.336 µg/mL)	0.78 (≈ 0.336 µg/mL)	0.6 (≈ 0.258 µg/mL)	0.6 (≈ 0.258 µg/mL)	0.78 (≈ 0.336 µg/mL)	1.2 (≈ 0.517 µg/mL)	1.2 (≈ 0.517 µg/mL)	1.56 (≈ 0.672 µg/mL)	1.2 (≈ 0.517 µg/mL)	0.78 (≈ 0.336 µg/mL)	0.39 (≈ 0.168 µg/mL)	MIC [1]: 0.78 µM (≈ 0.336 µg/mL); Activity [3]: inactive; MIC [4]: 0.78 µM (≈ 0.336 µg/mL); IC50 at 24 h [5]: > 50 µM; MIC [6]: 0.6 µM (≈ 0.258 µg/mL); MIC [10]: 0.6 µM (≈ 0.258 µg/mL); Activity [14]: Active; Activity [22]: inactive; MIC [23]: 0.1 µM (≈ 0.0431 µg/mL); MIC [25]: 0.78 µM (≈ 0.336 µg/mL); inhibition [27]: Active; IC50 at 24 h [30]: 37.5 µM
COc1nc2ccc(Br)cc2cc1[C@@H](c1ccccc1)[C@@](O)(CCN(C)C)c1cccc2ccccc12 [BEDAQUILINE]	0.05 (≈ 0.0278 µg/mL)	0.05 (≈ 0.0278 µg/mL)	0.05 (≈ 0.0278 µg/mL)	0.04 (≈ 0.0222 µg/mL)	0.6 (≈ 0.333 µg/mL)	0.07 (≈ 0.0389 µg/mL)	0.2 (≈ 0.111 µg/mL)	0.1 (≈ 0.0556 µg/mL)	0.1 (≈ 0.0556 µg/mL)	0.07 (≈ 0.0389 µg/mL)	0.15 (≈ 0.0833 µg/mL)	0.07 (≈ 0.0389 µg/mL)	0.04 (≈ 0.0222 µg/mL)	0.1 (≈ 0.0556 µg/mL)	0.2 (≈ 0.111 µg/mL)	0.3 (≈ 0.167 µg/mL)	0.15 (≈ 0.0833 µg/mL)	0.07 (≈ 0.0389 µg/mL)	0.1 (≈ 0.0556 µg/mL)	
